From ChEMBL document CHEMBL1145230, “Syntheses of 2,4,6-trisubstituted pyrimidine derivatives as a new class of antifilarial topoisomerase II inhibitors” (Bioorg Med Chem Lett, 2005)
Active and inactive are the calls of the source. The calls are words filed in the database; no cut-off is given here.

How the values were obtained:
Assay type in all cases: functional
Setaria cervi [1] = assay: Percent inhibition of filarial parasite Setaria cervi by compound at 40 ug/mL concentration
Setaria cervi [2] = assay: Percent inhibition of filarial parasite Setaria cervi by compound at 20 ug/mL concentration
Setaria cervi [3] = assay: Percent inhibition of filarial parasite Setaria cervi by compound at 10 ug/mL concentration
Setaria cervi [4] = assay: Percent inhibition of filarial parasite Setaria cervi by compound at 5 ug/mL concentration
Setaria cervi [5] = assay: Percent inhibition of filarial parasite Setaria cervi by compound at 10 ug/mL concentration; NI = no inhibition
Setaria cervi [6] = assay: Percent inhibition of filarial parasite Setaria cervi by compound at 5 ug/mL concentration; NI = no inhibition

| Compound | inhibition (Setaria cervi [1]) [%] | inhibition (Setaria cervi [2]) [%] | inhibition (Setaria cervi [3]) [%] | inhibition (Setaria cervi [4]) [%] | inhibition (Setaria cervi [5]) | inhibition (Setaria cervi [6]) |
| --- | --- | --- | --- | --- | --- | --- |
| Nc1nc(NCCCN2CCOCC2)cc(-c2cccs2)n1 | 80 | 80 | 80 | 60 |  |  |
| CN1CCN(c2cc(-c3cccs3)nc(N)n2)CC1 | 80 | 80 | 80 | 60 |  |  |
| Nc1nc(NCCO)cc(-c2cccs2)n1 | 60 | 60 |  |  | inactive | inactive |
| CCN(CC)C(=O)N1CCN(C)CC1 | 45 | 10 |  |  | inactive | inactive |
| CO[C@@H]1[C@@H](OC(N)=O)[C@@H](O)[C@H](Oc2ccc3c(O)c(NC(=O)c4ccc(O)c(CC=C(C)C)c4)c(=O)oc3c2C)OC1(C)C | 80 | 20 | 10 |  |  | inactive |
| Nc1ccc(-c2nc(NCCCN3CCOCC3)cc(-c3cccs3)n2)cc1 | 70 | 70 | 70 | 40 |  |  |
| CN1CCN(c2cc(-c3cccs3)nc(-c3ccc(N)cc3)n2)CC1 | 80 | 80 | 80 | 25 |  |  |
| CCCNc1cc(-c2cccs2)nc(N)n1 | 60 | 60 |  |  | inactive | inactive |
| Nc1nc(NCCN2CCOCC2)cc(-c2cccs2)n1 | 80 | 80 | 80 |  |  | inactive |
| CCn1cc(C(=O)O)c(=O)c2ccc(C)nc21 | 80 | 40 | 20 |  |  | inactive |
